Laboratory results from US20190008797A1, “ESTROGEN RECEPTOR ALPHA COLIGANDS, AND METHODS OF USE THEREOF” (priority 2016, published 2019).

Experiments:
U2OS-ERα cells = assay: KRT19 mRNA real-time PCR in U2OS-ERα cells; assay type: cell-based, human
Protocol: (FIG. 1a) Chemical structure of 2′, 3′, 4′-THC. (FIG. 1b) U2OS cells cotransfected with ERE tk-luciferase and ERα (left panel) or ERβ (right panel). After transfection the cells were treated for 24 hours with 10 nM estradiol and 5 μM 2′, 3′, 4′-THC alone or in combination. Cells were lysed and luciferase activity was measured. RLU is relative light units. Error bars are the Mean±SEM. **P≤0.01. […] The total cellular RNA was extracted and real-time PCR for KRT19 mRNA was performed as described in Materials and Methods. […] Error bars are ±SEM. *P≤0.05, **** P≤0.0001.
FIGS. 3a-3d. […] Error bars are ±SEM.

[1] = biological target: T1, human glucocorticoid receptor (Homo sapiens, UniProt P04150); assay: GRE-TK-Luc reporter, U2OS cells cotransfected with hGR; assay type: cell-based; details: 5 μM + 10 nM dexamethasone, 24 hours
T1 construct: expressed in transfected cells; host or cells: U2OS
T1 sequence (P04150 1-777): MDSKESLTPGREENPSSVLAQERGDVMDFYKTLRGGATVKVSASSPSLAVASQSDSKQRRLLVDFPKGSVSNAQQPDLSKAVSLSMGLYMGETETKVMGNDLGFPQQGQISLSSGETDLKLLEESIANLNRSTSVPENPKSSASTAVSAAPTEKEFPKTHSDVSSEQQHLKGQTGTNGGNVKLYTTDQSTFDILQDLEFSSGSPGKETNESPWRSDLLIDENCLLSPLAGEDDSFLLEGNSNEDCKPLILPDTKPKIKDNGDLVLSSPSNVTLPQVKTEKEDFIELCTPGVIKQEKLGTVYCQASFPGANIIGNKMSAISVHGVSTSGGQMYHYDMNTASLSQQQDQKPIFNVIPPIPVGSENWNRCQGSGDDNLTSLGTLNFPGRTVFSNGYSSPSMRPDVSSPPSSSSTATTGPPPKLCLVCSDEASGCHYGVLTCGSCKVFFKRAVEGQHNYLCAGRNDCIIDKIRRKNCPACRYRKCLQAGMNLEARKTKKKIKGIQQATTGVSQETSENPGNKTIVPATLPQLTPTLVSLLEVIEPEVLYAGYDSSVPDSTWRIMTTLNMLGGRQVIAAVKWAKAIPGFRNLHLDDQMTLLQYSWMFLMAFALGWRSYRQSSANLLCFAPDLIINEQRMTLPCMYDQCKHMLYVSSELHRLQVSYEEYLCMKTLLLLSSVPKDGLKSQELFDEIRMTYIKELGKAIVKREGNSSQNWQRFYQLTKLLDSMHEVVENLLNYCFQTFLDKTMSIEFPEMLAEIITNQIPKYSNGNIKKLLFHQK

MCF-7 cells = assay: KRT19 mRNA RT-QPCR in MCF-7 cells; details: 5 μM + 10 nM E2, 4 hours
ERα = ERα (Homo sapiens, UniProt P03372); assay: NKG2E-TK-Luc transfection assay, U2OS cells cotransfected with ERα; assay type: cell-based; design: expressed in transfected cells; host or cells: U2OS
ERα, sequence (P03372 whole entry): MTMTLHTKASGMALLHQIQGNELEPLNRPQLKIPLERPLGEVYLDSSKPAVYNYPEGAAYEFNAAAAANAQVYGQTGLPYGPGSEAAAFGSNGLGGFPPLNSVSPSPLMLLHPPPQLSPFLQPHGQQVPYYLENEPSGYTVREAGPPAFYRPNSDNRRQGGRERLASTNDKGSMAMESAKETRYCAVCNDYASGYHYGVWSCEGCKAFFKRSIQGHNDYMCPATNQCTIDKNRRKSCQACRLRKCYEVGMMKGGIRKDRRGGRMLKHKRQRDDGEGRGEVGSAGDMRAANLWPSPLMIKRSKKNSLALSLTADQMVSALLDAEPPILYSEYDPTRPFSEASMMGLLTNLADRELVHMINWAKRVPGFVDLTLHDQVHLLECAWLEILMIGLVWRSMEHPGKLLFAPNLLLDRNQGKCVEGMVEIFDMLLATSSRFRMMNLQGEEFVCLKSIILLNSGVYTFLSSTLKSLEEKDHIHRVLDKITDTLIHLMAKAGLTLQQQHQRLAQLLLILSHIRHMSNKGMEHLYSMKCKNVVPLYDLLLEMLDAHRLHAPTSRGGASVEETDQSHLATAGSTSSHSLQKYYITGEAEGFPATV
Protocol: FIG. 7a-7e. […] (C) U2OS cells cotransfected with GRE-TK-Luc and human (h) GR and treated with 10 nM of dexamethasone (Dex) and 5 μM of 2′, 3′, 4′-THC alone or in combination for 24 hours. (D) U2OS cells cotransfected with human tyrosine aminotransferase (TATS)-luciferase reporter gene and hAR and treated with 10 nM of dihydrotestosterone (DHT) and 5 μM of 2′, 3′, 4′-THC alone or in combination for 24 hours. (E) U2OS cells cotransfected with TAT3-luciferase reporter gene and hPR-B and treated with 10 nM of progesterone (Prog) and 5 μM of 2′, 3′, 4′-THC alone or in combination for 24 hours. After transfection, luciferase activities were measured as described in the Methods. RLU is relative light units and the data shown are mean±SEM.
(FIGS. 6a, 6b) Gene expression of (FIG. 6a) KRT73 and (FIG. 6b) NKG2E in U2OS-ERα cells treated with 10 nM estradiol, 5 μM 2′, 3′, 4′-THC, 1μM ICI alone or in combination for 24 hours. […] Error bars are ±SEM. […] After transfection, luciferase activities were measured as described in the Methods. RLU is relative light units and the data shown are mean ±SEM. (FIG. 6c). […] After transfection, luciferase activities were measured as described in the Methods. RLU is relative light units and the data shown are mean ±SEM (FIG. 6d).

O=C(/C=C/c1ccccc1)c1ccc(O)c(O)c1O [2′, 3′, 4′-THC, 2′, 3′, 4′-trihydroxychalcone]
KRT19 gene expression, compound alone (U2OS-ERα cells; 10 nM E2, 5 μM 2′,3′,4′-THC, 1 μM tamoxifen or raloxifene, 24 hours): no effect | activation of the KRT19 gene in the presence of E2 (U2OS-ERα cells; 1 and 5 μM 2′,3′,4′-THC, 24 h): synergistic activation | effect on E2-induced KRT19 expression (U2OS-ERα cells; in combination with 10 nM E2, 24 hours): synergistic activation | synergy with receptor agonist [1]: no synergy | effect on E2 activation of the KRT19 gene (MCF-7 cells): did not have a significant effect | response of NKG2E-TK-Luc with E2 (ERα; 1 μM 2′,3′,4′-THC): synergistic response | response of NKG2E-TK-Luc with E2 (ERα; 5 μM 2′,3′,4′-THC): maximal response | synergistic activation of NKG2E-TK-Luc in combination with E2, tamoxifen or raloxifene (ERα; 5 μM, 10 nM E2, 1 μM tamoxifen, 1 μM raloxifene, 24 hours): synergistic activation only with E2 | activation of NKG2E-TK-Luc, compound alone (ERα; 24 hours): No activation
